{
  "source": "ChEMBL document CHEMBL1130816",
  "about": "“Synthesis and antibacterial activity of O-methyl derivatives of azalide antibiotics: II. 6-OME derivatives via clarithromycin” (1998)",
  "assay_type_in_all_cases": "functional",
  "key": {"Bacillus subtilis": {"test_system": "Bacillus subtilis", "assay": "Compound was evaluated for antibacterial activity against Bacillus subtilis (MB5586) sensitive strain"}, "Enterococcus faecium": {"test_system": "Enterococcus faecium", "assay": "Compound was evaluated for antibacterial activity against Enterococcus faecium (MB5516) sensitive strain"}, "Enterococcus faecalis": {"test_system": "Enterococcus faecalis", "assay": "Compound was evaluated for antibacterial activity against Enterococcus faecalis (MB5407) sensitive strain"}, "Staphylococcus aureus": {"test_system": "Staphylococcus aureus", "assay": "Compound was evaluated for antibacterial activity against Staphylococcus aureus (MB2865) sensitive strain"}, "Streptococcus pyogenes": {"test_system": "Streptococcus pyogenes", "assay": "Compound was evaluated for antibacterial activity against Streptococcus pyogenes (MB2874) sensitive strain"}, "Streptococcus pneumoniae": {"test_system": "Streptococcus pneumoniae", "assay": "Compound was evaluated for antibacterial activity against Streptococcus pneumoniae (MB3957) sensitive strain"}},
  "data": [
    {"smiles": "CC[C@H]1OC(=O)[C@H](C)[C@@H](O[C@H]2C[C@@](C)(OC)[C@H](O)[C@H](C)O2)[C@H](C)[C@@H](O[C@@H]2O[C@H](C)C[C@H](N(C)C)[C@H]2O)[C@](C)(O)C[C@@H](C)N(C)C[C@H](C)[C@@H](O)[C@]1(C)O", "values": [
      {"measurement": "MIC", "setting": "Bacillus subtilis", "result": 0.3, "unit": "µg/mL"},
      {"measurement": "MIC", "setting": "Enterococcus faecium", "result": 0.125, "unit": "µg/mL"},
      {"measurement": "MIC", "setting": "Enterococcus faecalis", "result": 2, "unit": "µg/mL"},
      {"measurement": "MIC", "setting": "Staphylococcus aureus", "result": 0.3, "unit": "µg/mL"},
      {"measurement": "MIC", "setting": "Streptococcus pyogenes", "result": "< 0.06", "unit": "µg/mL"},
      {"measurement": "MIC", "setting": "Streptococcus pneumoniae", "result": "< 0.06", "unit": "µg/mL"}
    ]},
    {"smiles": "CC[C@H]1OC(=O)[C@H](C)[C@@H](O[C@H]2C[C@@](C)(OC)[C@@H](OC)[C@@H](C)O2)[C@H](C)[C@@H](O[C@@H]2O[C@H](C)C[C@@H](N(C)C)[C@H]2O)[C@](C)(O)C[C@@H](C)N(C)C[C@H](C)[C@@H](OC)[C@]1(C)OC", "values": [
      {"measurement": "MIC", "setting": "Bacillus subtilis", "result": 2, "unit": "µg/mL"},
      {"measurement": "MIC", "setting": "Enterococcus faecium", "result": 8, "unit": "µg/mL"},
      {"measurement": "MIC", "setting": "Enterococcus faecalis", "result": 32, "unit": "µg/mL"},
      {"measurement": "MIC", "setting": "Staphylococcus aureus", "result": 32, "unit": "µg/mL"},
      {"measurement": "MIC", "setting": "Streptococcus pyogenes", "result": 0.5, "unit": "µg/mL"},
      {"measurement": "MIC", "setting": "Streptococcus pneumoniae", "result": 4, "unit": "µg/mL"}
    ]},
    {"smiles": "CC[C@H]1OC(=O)[C@H](C)[C@@H](O[C@H]2C[C@@](C)(OC)[C@@H](O)[C@@H](C)O2)[C@H](C)[C@@H](O[C@@H]2O[C@H](C)C[C@@H](N(C)C)[C@H]2O)[C@](C)(OC)C[C@@H](C)N(C)C[C@H](C)[C@@H](O)[C@]1(C)O", "values": [
      {"measurement": "MIC", "setting": "Bacillus subtilis", "result": 1, "unit": "µg/mL"},
      {"measurement": "MIC", "setting": "Enterococcus faecium", "result": 1, "unit": "µg/mL"},
      {"measurement": "MIC", "setting": "Enterococcus faecalis", "result": 16, "unit": "µg/mL"},
      {"measurement": "MIC", "setting": "Staphylococcus aureus", "result": 2, "unit": "µg/mL"},
      {"measurement": "MIC", "setting": "Streptococcus pyogenes", "result": 0.06, "unit": "µg/mL"},
      {"measurement": "MIC", "setting": "Streptococcus pneumoniae", "result": 0.5, "unit": "µg/mL"}
    ]},
    {"smiles": "CC[C@H]1OC(=O)[C@H](C)[C@@H](O[C@H]2C[C@@](C)(OC)[C@@H](O)[C@@H](C)O2)[C@H](C)[C@@H](O[C@@H]2O[C@H](C)C[C@@H](N(C)C)[C@H]2O)[C@](C)(OC)C[C@@H](C)CN(C)[C@H](C)[C@@H](O)[C@]1(C)O", "values": [
      {"measurement": "MIC", "setting": "Bacillus subtilis", "result": 1, "unit": "µg/mL"},
      {"measurement": "MIC", "setting": "Enterococcus faecium", "result": 1, "unit": "µg/mL"},
      {"measurement": "MIC", "setting": "Enterococcus faecalis", "result": 8, "unit": "µg/mL"},
      {"measurement": "MIC", "setting": "Staphylococcus aureus", "result": 2, "unit": "µg/mL"},
      {"measurement": "MIC", "setting": "Streptococcus pyogenes", "result": 0.12, "unit": "µg/mL"},
      {"measurement": "MIC", "setting": "Streptococcus pneumoniae", "result": 0.5, "unit": "µg/mL"}
    ]},
    {"smiles": "CC[C@H]1OC(=O)[C@H](C)[C@@H](O[C@H]2C[C@@](C)(OC)[C@@H](OC)[C@@H](C)O2)[C@H](C)[C@@H](O[C@@H]2O[C@H](C)C[C@@H](N(C)C)[C@H]2O)[C@](C)(O)C[C@@H](C)N(C)C[C@H](C)[C@@H](O)[C@]1(C)O", "values": [
      {"measurement": "MIC", "setting": "Bacillus subtilis", "result": 4, "unit": "µg/mL"},
      {"measurement": "MIC", "setting": "Enterococcus faecium", "result": 2, "unit": "µg/mL"},
      {"measurement": "MIC", "setting": "Enterococcus faecalis", "result": 8, "unit": "µg/mL"},
      {"measurement": "MIC", "setting": "Staphylococcus aureus", "result": 8, "unit": "µg/mL"},
      {"measurement": "MIC", "setting": "Streptococcus pyogenes", "result": 0.03, "unit": "µg/mL"},
      {"measurement": "MIC", "setting": "Streptococcus pneumoniae", "result": 0.5, "unit": "µg/mL"}
    ]},
    {"smiles": "CC[C@H]1OC(=O)[C@H](C)[C@@H](O[C@H]2C[C@@](C)(OC)[C@@H](OC)[C@@H](C)O2)[C@H](C)[C@@H](O[C@@H]2O[C@H](C)C[C@@H](N(C)C)[C@H]2O)[C@](C)(OC)C[C@@H](C)N(C)C[C@H](C)[C@@H](OC)[C@]1(C)OC", "values": [
      {"measurement": "MIC", "setting": "Bacillus subtilis", "result": 8, "unit": "µg/mL"},
      {"measurement": "MIC", "setting": "Enterococcus faecium", "result": 8, "unit": "µg/mL"},
      {"measurement": "MIC", "setting": "Enterococcus faecalis", "result": 32, "unit": "µg/mL"},
      {"measurement": "MIC", "setting": "Staphylococcus aureus", "result": 32, "unit": "µg/mL"},
      {"measurement": "MIC", "setting": "Streptococcus pyogenes", "result": 0.5, "unit": "µg/mL"},
      {"measurement": "MIC", "setting": "Streptococcus pneumoniae", "result": 4, "unit": "µg/mL"}
    ]},
    {"smiles": "CC[C@H]1OC(=O)[C@H](C)[C@@H](O[C@H]2C[C@@](C)(OC)[C@@H](O)[C@H](C)O2)[C@H](C)[C@@H](O[C@@H]2O[C@H](C)C[C@H](N(C)C)[C@H]2O)[C@](C)(O)C[C@@H](C)CN(C)[C@H](C)[C@@H](O)[C@]1(C)O", "note": "[AZITHROMYCIN]", "values": [
      {"measurement": "MIC", "setting": "Bacillus subtilis", "result": 1, "unit": "µg/mL"},
      {"measurement": "MIC", "setting": "Enterococcus faecium", "result": 0.25, "unit": "µg/mL"},
      {"measurement": "MIC", "setting": "Enterococcus faecalis", "result": 4, "unit": "µg/mL"},
      {"measurement": "MIC", "setting": "Staphylococcus aureus", "result": 0.5, "unit": "µg/mL"},
      {"measurement": "MIC", "setting": "Streptococcus pyogenes", "result": 0.03, "unit": "µg/mL"},
      {"measurement": "MIC", "setting": "Streptococcus pneumoniae", "result": "< 0.06", "unit": "µg/mL"}
    ]}
  ]
}
